The assay concerns accumulation of sebum. The assay can be described thus: Anti-seborrheic activity on the shaved back of rats (browning, second evaluation method), % sebum reduction. It is filed as in vivo. The settings on record: topical, once daily on 9 of 14 days, male Wistar rats, treated side vs untreated control group; for % Sebum reduction at the indicated concentration of active substance: 0.05%: 0.05 wt. % in alcohol; for % Sebum reduction at the indicated concentration of active substance: 0.02%: 0.02 wt. % in alcohol; for % Sebum reduction at the indicated concentration of active substance: 0.1%: 0.1 wt. % in alcohol. The source says: Male Wistar rats having a body weight ranging from 220 to 230 g at the beginning of the tests were used as the test animals. The accumulation of sebum in the test animals was examined by visually observing the degree of browning on the shaved back of the rats. Browning is caused by the accumulation of the brown skin surface lipid secreted by the rats. This test is based on the observation that young female rats, as well as male rats washed with a surfactant solution or with a lipid solvent or male rats systematically treated with estrogens show only a normal light, pink-colored skin after shaving, while at the same time, only comparatively very small quantities of lipids can be extracted from the shaved hairs.
In order to assess the anti-seborrheic effectiveness of the alkoxy and alkylbenzyloxy benzoic acid esters of the present invention, alcoholic solutions of test substances (B), (E), (F), (H) and (I) were each brushed onto one side of the back of 6 rats. The benzoic acid ester derivatives tested were applied in concentrations ranging from 0.02 to 0.1 wt. % in the alcohol.
The test period consisted of 14 days. The test substances were applied, once daily on 9 of the 14 days. A second group of 6 rats which were not treated was used as an additional control. At the end of the test period, the backs and sides of the animals were shaved and visually inspected. The examination was done independently by an evaluation panel composed of 6 people using double blind techniques.
A second criterion of evaluation is the intensity of the brown coloration in the shaved area. The following scale is used for this analysis:
According to this second method of evaluation, differences in the total points between the untreated control animals and the treated and untreated sides (ΔP) of the test animals respectively are calculated. Significant differences between the total point values assigned to the control animals and the values assigned to the treated side of the test animals again indicate the antiseborrheic effectiveness of a substance.
The results are presented in terms of sebum reduction percentage. The sebum reduction percentage is calculated from the point differences by determining the quotient of the difference in total points between the control group and the treated side of the test animals (ΔP) and the total number of points for the control group (Pk) and then expressing the value obtained in percent. [formula]

Turning to `CCCCCCCCCCCCOCCOc1ccc(C(=O)OCCCO)cc1` [H, 4-(2-dodecyloxy-ethoxy)-benzoic acid-3-hydroxypropyl ester], the “% Sebum reduction at the indicated concentration of active substance: 0.05%” value (from here on “% Sebum reduction … 0.05%”) came to 71%.

As for `CCCCCCCCCCCCOCCOc1ccc(C(=O)OC)cc1` [F, 4-(2-dodecyloxyethoxy)-benzoic acid methylester], the “% Sebum reduction … 0.05%” value stood at 63%.

Take “4-isotridecyloxy-benzoic acid methylester”: the “% Sebum reduction at the indicated concentration of active substance: 0.02%” value is recorded as 83% and the “% Sebum reduction … 0.05%” value worked out at 83%.

Regarding `CCCCCCCCCCCCOc1ccc(C(=O)OCCCO)cc1` [4-dodecyloxy benzoic acid-3-hydroxypropyl ester, reference compound], the “% Sebum reduction … 0.05%” value is 18% and the “% Sebum reduction at the indicated concentration of active substance: 0.1%” value (from here on “% Sebum reduction … 0.1%”) is on record as 33%.

With `COC(=O)c1ccc(OCCC(C)CC(C)(C)C)cc1` (stereo not drawn) [Compound B, 4-(3,5,5-trimethylhexyloxy)-benzoic acid methylester], the “% Sebum reduction … 0.05%” value was 36% and the “% Sebum reduction … 0.1%” value turned out to be 76%.

On to `CCCCCCCCCCCCOc1ccc(C(=O)OC)cc1` [4-dodecyloxy benzoic acid methyl ester, reference compound], for which the “% Sebum reduction … 0.05%” value worked out at 0% and the “% Sebum reduction … 0.1%” value came to 18%.

Take `COC(=O)c1ccc(OCc2ccc(C(C)(C)C)cc2)cc1` [Compound E, 4-(4-tert-butylbenzyloxy)-benzoic acid methylester]: the “% Sebum reduction at the indicated concentration of active substance: 0.02%” value was determined as 10% and the “% Sebum reduction … 0.05%” value came out at 77%.

These data come from patent publication US4684665A, “Sebosuppressive benzoic acid ester derivatives and cosmetic preparations containing them” (Henkel Kommanditgesellschaft auf Aktien, priority 1985, dated 1987).
